# Assay results from the supplement of paper PMC10307832.
# What was measured:
# Experiment in all cases: relative viability (nuclei count vs DMSO), 5 days (fraction); higher = more cells survive
# COR-L23 = tested on: COR-L23
# Procedure, shortened: (§1)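 Medians of duplicate plates are given as relative viability. That measure is the nuclei count in treated wells divided by the count in vehicle wells. Counts were taken on 4× images of lung cancer cell lines in 1536-well plates, 5 days after pin-tool dosing the day after seeding with one drug alone or a fixed anchor-drug dose plus five library-drug doses (not always all listed) in √10 steps.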
# ChaGo-K-1 = tested on: ChaGo-K-1
# Procedure, shortened: as §1
# EMC-BAC-2 = tested on: EMC-BAC-2
# Procedure, shortened: as §1
# EPLC-272H = tested on: EPLC-272H
# Procedure, shortened: as §1
# H3255 = tested on: H3255
# Procedure, shortened: as §1
# HCC-44 = tested on: HCC-44
# Procedure, shortened: as §1
# HCC-827 = tested on: HCC-827
# Procedure, shortened: as §1
# LCLC-103H = tested on: LCLC-103H
# Procedure, shortened: as §1
# LU99A = tested on: LU99A
# Procedure, shortened: as §1
# NCI-H1395 = tested on: NCI-H1395
# Procedure, shortened: as §1
# NCI-H1651 = tested on: NCI-H1651
# Procedure, shortened: as §1
# NCI-H1793 = tested on: NCI-H1793
# Procedure, shortened: as §1
# NCI-H1944 = tested on: NCI-H1944
# Procedure, shortened: as §1
# NCI-H2023 = tested on: NCI-H2023
# Procedure, shortened: as §1
# NCI-H2085 = tested on: NCI-H2085
# Procedure, shortened: as §1
# NCI-H2087 = tested on: NCI-H2087
# Procedure, shortened: as §1
# NCI-H2405 = tested on: NCI-H2405
# Procedure, shortened: as §1
# NCI-H520 = tested on: NCI-H520
# Procedure, shortened: as §1
# NCI-H650 = tested on: NCI-H650
# Procedure, shortened: as §1
# NCI-H838 = tested on: NCI-H838
# Procedure, shortened: as §1
# SK-MES-1 = tested on: SK-MES-1
# Procedure, shortened: as §1
structure (smiles),measurement,setting,value
COc1nc(C)cnc1NS(=O)(=O)c1cccnc1-c1ccc(-c2nnco2)cc1 [Zibotentan] + O=C(CCCCCCC(=O)Nc1ccccc1)NO [Vorinostat] (partner 1 µM),relative viability,COR-L23; first compound 0.08 µM,0.448
same,relative viability,COR-L23; first compound 0.253 µM,0.446
same,relative viability,COR-L23; first compound 0.8 µM,0.351
same,relative viability,COR-L23; first compound 2.53 µM,0.46
same,relative viability,ChaGo-K-1; first compound 0.08 µM,0.802
same,relative viability,ChaGo-K-1; first compound 0.253 µM,0.764
same,relative viability,ChaGo-K-1; first compound 0.8 µM,0.713
same,relative viability,ChaGo-K-1; first compound 2.53 µM,0.815
same,relative viability,EMC-BAC-2; first compound 0.08 µM,0.907
same,relative viability,EMC-BAC-2; first compound 0.8 µM,0.546
same,relative viability,EMC-BAC-2; first compound 2.53 µM,0.514
same,relative viability,EPLC-272H; first compound 0.253 µM,0.506
same,relative viability,EPLC-272H; first compound 0.8 µM,0.667
same,relative viability,EPLC-272H; first compound 2.53 µM,0.501
same,relative viability,H3255; first compound 0.08 µM,0.926
same,relative viability,H3255; first compound 0.253 µM,0.785
same,relative viability,H3255; first compound 0.8 µM,0.877
same,relative viability,H3255; first compound 2.53 µM,0.778
same,relative viability,HCC-44; first compound 0.08 µM,1.12
same,relative viability,HCC-44; first compound 0.253 µM,1.08
same,relative viability,HCC-44; first compound 0.8 µM,1.02
same,relative viability,HCC-44; first compound 2.53 µM,1.08
same,relative viability,HCC-827; first compound 0.08 µM,0.958
same,relative viability,HCC-827; first compound 0.253 µM,0.771
same,relative viability,HCC-827; first compound 0.8 µM,0.811
same,relative viability,HCC-827; first compound 2.53 µM,0.785
same,relative viability,LCLC-103H; first compound 0.08 µM,0.801
same,relative viability,LCLC-103H; first compound 0.253 µM,0.842
same,relative viability,LCLC-103H; first compound 0.8 µM,0.722
same,relative viability,LCLC-103H; first compound 2.53 µM,0.839
same,relative viability,LU99A; first compound 0.08 µM,0.514
same,relative viability,LU99A; first compound 0.253 µM,0.537
same,relative viability,LU99A; first compound 0.8 µM,0.463
same,relative viability,LU99A; first compound 2.53 µM,0.477
same,relative viability,NCI-H1395; first compound 0.08 µM,0.809
same,relative viability,NCI-H1395; first compound 0.253 µM,0.502
same,relative viability,NCI-H1395; first compound 0.8 µM,0.698
same,relative viability,NCI-H1395; first compound 2.53 µM,0.951
same,relative viability,NCI-H1651; first compound 0.08 µM,0.543
same,relative viability,NCI-H1651; first compound 0.253 µM,0.492
same,relative viability,NCI-H1651; first compound 0.8 µM,0.559
same,relative viability,NCI-H1651; first compound 2.53 µM,0.461
same,relative viability,NCI-H1793; first compound 0.08 µM,0.673
same,relative viability,NCI-H1793; first compound 0.253 µM,0.673
same,relative viability,NCI-H1793; first compound 0.8 µM,0.925
same,relative viability,NCI-H1793; first compound 2.53 µM,0.973
same,relative viability,NCI-H1944; first compound 0.08 µM,0.674
same,relative viability,NCI-H1944; first compound 0.253 µM,0.533
same,relative viability,NCI-H1944; first compound 0.8 µM,0.508
same,relative viability,NCI-H1944; first compound 2.53 µM,0.631
same,relative viability,NCI-H2023; first compound 0.08 µM,0.849
same,relative viability,NCI-H2023; first compound 0.8 µM,0.562
same,relative viability,NCI-H2023; first compound 2.53 µM,0.846
same,relative viability,NCI-H2085; first compound 0.08 µM,0.762
same,relative viability,NCI-H2085; first compound 0.253 µM,0.766
same,relative viability,NCI-H2085; first compound 0.8 µM,0.769
same,relative viability,NCI-H2085; first compound 2.53 µM,0.824
same,relative viability,NCI-H2087; first compound 0.08 µM,0.719
same,relative viability,NCI-H2087; first compound 0.253 µM,0.679
same,relative viability,NCI-H2087; first compound 0.8 µM,0.752
same,relative viability,NCI-H2087; first compound 2.53 µM,0.732
same,relative viability,NCI-H2405; first compound 0.08 µM,1.25
same,relative viability,NCI-H2405; first compound 0.253 µM,0.829
same,relative viability,NCI-H2405; first compound 0.8 µM,0.957
same,relative viability,NCI-H2405; first compound 2.53 µM,1.12
same,relative viability,NCI-H520; first compound 0.08 µM,0.778
same,relative viability,NCI-H520; first compound 0.253 µM,0.799
same,relative viability,NCI-H520; first compound 0.8 µM,0.794
same,relative viability,NCI-H520; first compound 2.53 µM,0.711
same,relative viability,NCI-H650; first compound 0.08 µM,0.53
same,relative viability,NCI-H650; first compound 0.253 µM,0.403
same,relative viability,NCI-H650; first compound 0.8 µM,0.625
same,relative viability,NCI-H650; first compound 2.53 µM,0.536
same,relative viability,NCI-H838; first compound 0.08 µM,0.762
same,relative viability,NCI-H838; first compound 0.253 µM,0.716
same,relative viability,NCI-H838; first compound 0.8 µM,0.757
same,relative viability,NCI-H838; first compound 2.53 µM,0.771
same,relative viability,SK-MES-1; first compound 0.08 µM,1.18
same,relative viability,SK-MES-1; first compound 0.253 µM,0.793
same,relative viability,SK-MES-1; first compound 0.8 µM,1.09
same,relative viability,SK-MES-1; first compound 2.53 µM,1.12
COc1nc(C)cnc1NS(=O)(=O)c1cccnc1-c1ccc(-c2nnco2)cc1 [Zibotentan] + O=C(c1cc(Cc2n[nH]c(=O)c3ccccc23)ccc1F)N1CCN(C(=O)C2CC2)CC1 [Olaparib] (partner 8 µM),relative viability,COR-L23; first compound 0.08 µM,0.324
same,relative viability,COR-L23; first compound 0.253 µM,0.284
same,relative viability,COR-L23; first compound 0.8 µM,0.395
same,relative viability,COR-L23; first compound 2.53 µM,0.352
same,relative viability,ChaGo-K-1; first compound 0.08 µM,0.393
same,relative viability,ChaGo-K-1; first compound 0.253 µM,0.396
same,relative viability,ChaGo-K-1; first compound 0.8 µM,0.322
same,relative viability,ChaGo-K-1; first compound 2.53 µM,0.393
same,relative viability,EMC-BAC-2; first compound 0.08 µM,0.519
same,relative viability,EMC-BAC-2; first compound 0.8 µM,0.562
same,relative viability,EMC-BAC-2; first compound 2.53 µM,0.461
same,relative viability,EPLC-272H; first compound 0.253 µM,0.732
same,relative viability,EPLC-272H; first compound 0.8 µM,0.991
same,relative viability,EPLC-272H; first compound 2.53 µM,0.754
same,relative viability,H3255; first compound 0.08 µM,0.552
same,relative viability,H3255; first compound 0.253 µM,0.529
same,relative viability,H3255; first compound 0.8 µM,0.588
same,relative viability,H3255; first compound 2.53 µM,0.56
same,relative viability,HCC-44; first compound 0.08 µM,0.958
same,relative viability,HCC-44; first compound 0.253 µM,0.965
same,relative viability,HCC-44; first compound 0.8 µM,0.98
same,relative viability,HCC-44; first compound 2.53 µM,0.957
same,relative viability,HCC-827; first compound 0.08 µM,0.64
same,relative viability,HCC-827; first compound 0.253 µM,0.647
same,relative viability,HCC-827; first compound 0.8 µM,0.667
same,relative viability,HCC-827; first compound 2.53 µM,0.669
same,relative viability,LCLC-103H; first compound 0.08 µM,0.738
same,relative viability,LCLC-103H; first compound 0.253 µM,0.74
same,relative viability,LCLC-103H; first compound 0.8 µM,0.696
same,relative viability,LCLC-103H; first compound 2.53 µM,0.751
same,relative viability,LU99A; first compound 0.08 µM,0.269
same,relative viability,LU99A; first compound 0.253 µM,0.259
same,relative viability,LU99A; first compound 0.8 µM,0.181
same,relative viability,LU99A; first compound 2.53 µM,0.255
same,relative viability,NCI-H1395; first compound 0.08 µM,0.401
same,relative viability,NCI-H1395; first compound 0.253 µM,0.486
same,relative viability,NCI-H1395; first compound 0.8 µM,0.436
same,relative viability,NCI-H1395; first compound 2.53 µM,0.495
same,relative viability,NCI-H1651; first compound 0.08 µM,0.172
same,relative viability,NCI-H1651; first compound 0.253 µM,0.191
same,relative viability,NCI-H1651; first compound 0.8 µM,0.19
same,relative viability,NCI-H1651; first compound 2.53 µM,0.184
same,relative viability,NCI-H1793; first compound 0.08 µM,0.998
same,relative viability,NCI-H1793; first compound 0.253 µM,0.835
same,relative viability,NCI-H1793; first compound 0.8 µM,0.796
same,relative viability,NCI-H1793; first compound 2.53 µM,0.957
same,relative viability,NCI-H1944; first compound 0.08 µM,0.417
same,relative viability,NCI-H1944; first compound 0.253 µM,0.369
same,relative viability,NCI-H1944; first compound 0.8 µM,0.392
same,relative viability,NCI-H1944; first compound 2.53 µM,0.406
same,relative viability,NCI-H2023; first compound 0.08 µM,0.438
same,relative viability,NCI-H2023; first compound 0.253 µM,0.415
same,relative viability,NCI-H2023; first compound 0.8 µM,0.516
same,relative viability,NCI-H2023; first compound 2.53 µM,0.469
same,relative viability,NCI-H2085; first compound 0.08 µM,0.742
same,relative viability,NCI-H2085; first compound 0.253 µM,0.734
same,relative viability,NCI-H2085; first compound 0.8 µM,0.856
same,relative viability,NCI-H2085; first compound 2.53 µM,0.801
same,relative viability,NCI-H2087; first compound 0.08 µM,0.658
same,relative viability,NCI-H2087; first compound 0.253 µM,0.668
same,relative viability,NCI-H2087; first compound 0.8 µM,0.63
same,relative viability,NCI-H2087; first compound 2.53 µM,0.48
same,relative viability,NCI-H2405; first compound 0.08 µM,0.878
same,relative viability,NCI-H2405; first compound 0.253 µM,0.843
same,relative viability,NCI-H2405; first compound 0.8 µM,0.915
same,relative viability,NCI-H2405; first compound 2.53 µM,0.892
same,relative viability,NCI-H520; first compound 0.08 µM,0.282
same,relative viability,NCI-H520; first compound 0.253 µM,0.296
same,relative viability,NCI-H520; first compound 0.8 µM,0.252
same,relative viability,NCI-H520; first compound 2.53 µM,0.352
same,relative viability,NCI-H650; first compound 0.08 µM,0.413
same,relative viability,NCI-H650; first compound 0.253 µM,0.395
same,relative viability,NCI-H650; first compound 0.8 µM,0.52
same,relative viability,NCI-H650; first compound 2.53 µM,0.443
same,relative viability,NCI-H838; first compound 0.08 µM,0.756
same,relative viability,NCI-H838; first compound 0.253 µM,0.747
same,relative viability,NCI-H838; first compound 0.8 µM,0.827
same,relative viability,NCI-H838; first compound 2.53 µM,0.849
same,relative viability,SK-MES-1; first compound 0.08 µM,0.705
same,relative viability,SK-MES-1; first compound 0.253 µM,0.465
same,relative viability,SK-MES-1; first compound 0.8 µM,0.68
same,relative viability,SK-MES-1; first compound 2.53 µM,0.787
